Structures are written as SMILES. pEC50: −log10 of the molar value. Like-named read-outs stand apart in the source and are kept apart here.

One assay has as its target T1, human WT STING (Homo sapiens, UniProt Q86WV6, H232R).
T1 construct: truncated human WT STING or AQ STING (amino acid residues 140-343); 8xHis (N, cleaved yes); SUMO (N, cleaved yes); made in house; host or cells: E. coli Rosetta-gami B (DE3)
The assay can be described thus: Differential Scanning Fluorimetry with WT STING. Conditions: thermal shift vs STING apoprotein; 150 μM CDN; truncated WT STING (residues 140-343). In kind it is binding. Background: Differential scanning fluorimetry follows unfolding on heating by fluorescence.

For assay [1], the target named is T2, AQ human STING (G230A-R293Q) (Homo sapiens, UniProt Q86WV6, G230A/H232R/R293Q).
T2 construct: truncated human WT STING or AQ STING (amino acid residues 140-343); 8xHis (N, cleaved yes); SUMO (N, cleaved yes); made in house; host or cells: E. coli Rosetta-gami B (DE3)
T2 sequence (Q86WV6 140-343 G230A/H232R/R293Q): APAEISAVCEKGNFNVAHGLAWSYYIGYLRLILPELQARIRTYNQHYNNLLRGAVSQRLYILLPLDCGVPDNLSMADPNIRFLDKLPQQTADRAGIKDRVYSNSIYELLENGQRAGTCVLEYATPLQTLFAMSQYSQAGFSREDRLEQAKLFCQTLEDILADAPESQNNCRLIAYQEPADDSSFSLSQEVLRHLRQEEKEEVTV
The assay can be described thus: Differential Scanning Fluorimetry with AQ STING. In kind it is binding. Conditions: thermal shift vs STING apoprotein; 150 μM CDN; truncated AQ STING (residues 140-343).

The target in assay [2] is T3, human wild type STING (WT STING) (Homo sapiens, UniProt Q86WV6, H232R). The assay can be described thus: Digitonin assay using 293T wtSTING-FL reporter cells. In kind it is cell-based. As to conditions: 293T wtSTING-FL cells; compounds in Digitonin buffer 30 minutes, then 5 hours in medium; ISRE firefly luciferase.
T3 sequence (Q86WV6 whole entry H232R): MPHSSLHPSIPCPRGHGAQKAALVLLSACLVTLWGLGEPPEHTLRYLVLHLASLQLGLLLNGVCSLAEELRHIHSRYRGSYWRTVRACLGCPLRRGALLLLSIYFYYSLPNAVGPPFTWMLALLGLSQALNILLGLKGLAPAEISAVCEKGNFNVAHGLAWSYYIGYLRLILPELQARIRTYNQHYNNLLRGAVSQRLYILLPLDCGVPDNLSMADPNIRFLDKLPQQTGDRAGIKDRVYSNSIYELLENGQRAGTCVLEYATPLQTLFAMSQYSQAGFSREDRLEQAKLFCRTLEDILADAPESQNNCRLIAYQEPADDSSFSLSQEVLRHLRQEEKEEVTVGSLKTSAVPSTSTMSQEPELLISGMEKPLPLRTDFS
For assay [3], the target named is T3, human wild type STING (WT STING). Description: 293T WT STING standard reporter assay. In kind it is cell-based. As to conditions: 293T wtSTING-FL cells; standard reporter assay without digitonin; 7 hours; ISRE firefly luciferase; read-out: 293T WT STING EC50.
The test system of assay [4] is peripheral blood mononuclear cell (PBMC). The assay can be described thus: Peripheral blood mononuclear cell assay. Conditions: average of one to four donors.
Method: Selected compounds were tested in an in vitro peripheral blood mononuclear cell (PBMC) assay. […] Serially diluted tested compounds were added to wells in 50 μl of cultivation medium and cells were incubated with the compounds for 1h at 37° C. with 5% CO2. Plates with cells were then spun 500 g for 5 minutes and the medium was removed. Cells were washed twice with the cell culture medium by the use of centrifugation and gently resuspended in 100 μl medium without compounds. After 15 hour incubation at 37° C. with 5% CO2, the cell culture medium was collected and the levels of interferon-alpha (INF-α), interferon-gamma (INF-γ) and tumor necrosis factor-alpha (TNF-α) were determined with ProcartaPlex Assays (ThermoFisher, Waltham, USA) and MAGPIX System (Merck KGaA, Darmstadt, Germany). […] Values reported are an average of runs from one to four donors.
[5] abbreviates: PBMC, read-out: PBMC EC50 IFN-α, compounds 1h, washed, 15 hour incubation, interferon-alpha level in medium.
The mark [6] stands for this setting: PBMC, read-out: PBMC EC50 IFN-γ, compounds 1h, washed, 15 hour incubation, interferon-gamma level in medium.
The mark [7] stands for this setting: PBMC, read-out: PBMC EC50 TNF-α, compounds 1h, washed, 15 hour incubation, tumor necrosis factor-alpha level in medium.
[8] abbreviates: read-out: PBMC EC50 IFN-α, compounds 1h, washed, 15 hour incubation, interferon-alpha level in medium.
[9] abbreviates: read-out: PBMC EC50 IFN-γ, compounds 1h, washed, 15 hour incubation, interferon-gamma level in medium.
[10] abbreviates: read-out: PBMC EC50 TNF-α, compounds 1h, washed, 15 hour incubation, tumor necrosis factor-alpha level in medium.

T1 sequence (Q86WV6 140-343 H232R): as the sequence (Q86WV6 140-343 G230A/H232R/R293Q) above, with A91G, Q154R counted along it

What is called pEC50 is −log10 of the EC50, conventionally taken in molar units. Regarding `Nc1nc2c(ncn2[C@@H]2O[C@@H]3COP(=O)(S)CO[C@H]4[C@@H](F)[C@H](n5cnc6c(N)ncnc65)O[C@@H]4COP(=O)(S)O[C@@H]2[C@@H]3F)c(=O)[nH]1` (single isomer, unassigned) [Compound 17a], at human WT STING, the “DSF ΔTm WT STING” value came out at 8.7 °C. The “DSF ΔTm AQ STING” value in assay [1] is 14.3 °C. The pEC50 is 6.27 in assay [2] and 4.99 in assay [3].
On to `Nc1nc2c(ncn2[C@@H]2O[C@@H]3COP(=O)(S)CO[C@H]4[C@@H](F)[C@H](n5cnc6c(N)ncnc65)O[C@@H]4COP(=O)(S)O[C@@H]2[C@@H]3F)c(=O)[nH]1` (single isomer, unassigned) [Compound 17d], for which the “DSF ΔTm WT STING” value on human WT STING stood at 19.2 °C. Besides, the “DSF ΔTm AQ STING” value in assay [1] came out at 27.6 °C. Moreover, the pEC50 in assay [2] was 7.92; in assay [3], 6.40; in assay [4] (setting [5]) it was 4.16; in assay [4] (setting [6]) it was 4.64; in assay [4] (setting [7]), 4.17.
`Nc1nc2c(ncn2[C@@H]2O[C@@H]3COP(=O)(O)CO[C@H]4[C@@H](F)[C@H](n5cnc6c(N)ncnc65)O[C@@H]4COP(=O)(S)O[C@@H]2[C@@H]3F)c(=O)[nH]1` (single isomer, unassigned) [Compound 11b]: the “DSF ΔTm WT STING” value on human WT STING worked out at 22.4 °C. Moreover, the “DSF ΔTm AQ STING” value in assay [1] was found to be 29.2 °C. In addition, the negative-log EC50 (pEC50) in assay [2] is 8.00; in assay [3], 5.72; in assay [4] (setting [8]), 3.64; in assay [4] (setting [9]), 4.25; in assay [4] (setting [10]) it was 3.77.
Consider `Nc1nc2c(ncn2[C@@H]2O[C@@H]3COP(=O)(S)CO[C@H]4[C@@H](F)[C@H](n5cnc6c(N)ncnc65)O[C@@H]4COP(=O)(S)O[C@@H]2[C@@H]3F)c(=O)[nH]1` (single isomer, unassigned) [Compound 17c], for which the “DSF ΔTm WT STING” value at human WT STING is 18.6 °C. Also, the “DSF ΔTm AQ STING” value in assay [1] turned out to be 25.4 °C. Besides, the pEC50 in assay [2] is 8.15; in assay [3] it was 6.85; in assay [4] (setting [8]), 3.97; in assay [4] (setting [9]), 4.38; in assay [4] (setting [10]), 4.08.
With `Nc1nc2c(ncn2[C@@H]2O[C@@H]3COP(=O)(O)CO[C@H]4[C@@H](F)[C@H](n5cnc6c(N)ncnc65)O[C@@H]4COP(=O)(S)O[C@@H]2[C@@H]3F)c(=O)[nH]1` (single isomer, unassigned) [Compound 11a], the “DSF ΔTm WT STING” value at human WT STING was 17.3 °C. Also, in assay [1], the “DSF ΔTm AQ STING” value stood at 23.1 °C. The negative logarithm of the EC50 (pEC50) in assay [2] was 7.52; in assay [3], 5.60; in assay [4] (setting [5]), 3.54; in assay [4] (setting [7]), 3.74; in assay [4] (setting [9]) it was 3.82.
For the compound `Nc1nc2c(ncn2[C@@H]2O[C@@H]3COP(=O)(S)CO[C@H]4[C@@H](F)[C@H](n5cnc6c(N)ncnc65)O[C@@H]4COP(=O)(O)O[C@@H]2[C@@H]3F)c(=O)[nH]1` (single isomer, unassigned) [Compound 15a], the “DSF ΔTm WT STING” value on human WT STING stood at 13.8 °C. Also, the “DSF ΔTm AQ STING” value in assay [1] stood at 19.7 °C. Further, the negative logarithm of the EC50 (pEC50) in assay [2] is 7.70; in assay [3], 5.64.
Take `Nc1ncnc2c1ncn2[C@@H]1O[C@@H]2COP(=O)(S)O[C@@H]3[C@H](F)[C@@H](COP(=O)(O)CO[C@H]2[C@H]1F)O[C@H]3n1cnc2c(=O)[nH]cnc21` (single isomer, unassigned) [Compound 13b]: the “DSF ΔTm WT STING” value at human WT STING worked out at 20.9 °C. The “DSF ΔTm AQ STING” value in assay [1] came to 26.0 °C. In addition, the pEC50 is 8.00 in assay [2]; 5.96 in assay [3]; 3.82 in assay [4] (setting [5]); 4.15 in assay [4] (setting [6]); 4.19 in assay [4] (setting [7]).
Consider `Nc1ncnc2c1ncn2[C@@H]1O[C@@H]2COP(=O)(O)O[C@H]3[C@@H](O)[C@H](n4cnc5c(N)ncnc54)O[C@@H]3COP(=O)(O)O[C@H]2[C@H]1O` [3′3′-c-di-AMP, reference compound], for which the “DSF ΔTm WT STING” value at human WT STING is 2.5 °C. For the same compound, in assay [1], the “DSF ΔTm AQ STING” value was determined as 9.0 °C. In addition, the negative-log EC50 (pEC50) was 6.52 in assay [2] and 3.69 in assay [3].
In the same order, the values of `Nc1ncnc2c1ncn2[C@@H]1O[C@@H]2COP(=O)(S)O[C@@H]3[C@H](F)[C@@H](COP(=O)(O)CO[C@H]2[C@H]1F)O[C@H]3n1cnc2c(=O)[nH]cnc21` (single isomer, unassigned) [Compound 13a] are 18.3 °C, 21.8 °C, 8.05 and 5.89.
For `Nc1ncnc2c1ncn2[C@@H]1O[C@@H]2COP(=O)(O)O[C@@H]3[C@H](F)[C@@H](COP(=O)(O)CO[C@H]2[C@H]1F)O[C@H]3n1cnc2c(N)ncnc21` [Compound 28, (1S,6R,8R,9R,10R,16R,18R,19R)-8,18-bis(6-amino-9H-purin-9-yl)-9,19-difluoro-3,13-dihydroxy-2,4,7,11,14,17-hexaoxa-3λ^5,13λ^5-diphosphatricyclo[14.2.1.0^6,^10]nonadecane-3,13-dione], the “DSF ΔTm WT STING” value at human WT STING was 9.3 °C. For the same compound, the “DSF ΔTm AQ STING” value in assay [1] came to 13.3 °C. Besides, the pEC50 in assay [3] was 5.21.

The values are drawn from patent US12318403B2, “2′3′-cyclic dinucleotides and prodrugs thereof” (INSTITUTE OF ORGANIC CHEMISTRY AND BIOCHEMISTRY ASCR, V.V.I., priority 2019, dated 2025).
